Experimental data from patent US20240158339A1, “TYRAMINE CONTAINING HYDROXYCINNAMIC ACID AMIDE DERIVATIVES AND METHODS OF USE THEREOF” (Brightseed, Inc., priority 2018, published 2024).
“Also recorded” adds a separate entry of the source.

Legend:
HNF4α = biological target: T1, HNF4α (Homo sapiens, UniProt P41235); test: Insulin promoter activity assay (HNF4α assay) in T6PNE cells; type: cell-based; details: for HNF4α activation / bioactivity (screening result in words): HNF4α assay, screening and SAR statements
T1 construct: T6PNE cells (Kiselyuk, et al. (2012) Chem. Biol. 19(7):806-818; Kiselyuk, et al. (2010) J. Biomol; endogenous in cells; host or cells: T6PNE cells
T1 sequence (P41235 1-474): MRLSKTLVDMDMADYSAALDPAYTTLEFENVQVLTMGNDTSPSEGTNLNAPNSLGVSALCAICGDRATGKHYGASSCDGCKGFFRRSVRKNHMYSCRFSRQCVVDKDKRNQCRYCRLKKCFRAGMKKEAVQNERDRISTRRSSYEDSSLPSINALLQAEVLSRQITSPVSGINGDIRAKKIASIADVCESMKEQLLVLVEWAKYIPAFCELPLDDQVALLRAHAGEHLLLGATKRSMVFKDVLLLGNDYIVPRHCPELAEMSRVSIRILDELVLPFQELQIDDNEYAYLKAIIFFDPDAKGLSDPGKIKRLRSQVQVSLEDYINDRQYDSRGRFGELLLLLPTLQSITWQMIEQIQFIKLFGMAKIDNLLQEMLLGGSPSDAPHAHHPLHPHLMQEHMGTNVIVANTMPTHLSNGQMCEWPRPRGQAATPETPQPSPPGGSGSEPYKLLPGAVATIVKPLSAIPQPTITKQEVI
Experimental: Insulin Promoter Activity. T6PNE cells (Kiselyuk, et al. (2012) Chem. Biol. 19(7):806-818; Kiselyuk, et al. (2010) J. Biomol. Screen 15(6):663-70) are seeded at 2000 cells per well in 384-well tissue culture plates in the presence of 1 μM tamoxifen and 0.03 mM palmitate. After a 24-hour incubation, a compound of the invention is added to the cells. Forty-eight hours after compound addition, cells are fixed in 4% paraformaldehyde and stained with DAPI. Blue (DAPI) and green (human insulin promoter driving GFP) channels are imaged.
Inhibition of HNF4α GFP Expression. Using the insulin promoter assay described herein, activity of HNF4α was assessed in the presence of BI-6015 (0, 2.5, 5 μM), a known antagonist of HNF4α (Kiselyuk, et al. (2012) Chem. Biol. 19(7):806-818), in combination with N-trans-caffeoyltyramine (0, 5, 10, 20 μM).
Given the role of HNF4α in maintaining a health metabolism in humans, test compounds were screened for activity as HNF4α agonists (either direct or indirect effects). Using a known insulin promoter-reporter assay Kiselyuk and colleagues (2010. J. Biomol. Screen 15(6):663-70) screened a library of compounds for activity to promote insulin activation. […] The OTC promoter is known to be responsive to HNF4α in transient transfection assays (Inoue, et al. (2002) J. Biol. Chem. 277:25257-65).
Plant compounds in the top 10th percentile of similarity to the 18 target structures were selected and compounds predicted to be potential agonists of HNF4α activity given their chemical structural features were screened in the HNF4α assay.

insulin mRNA = test: Insulin mRNA levels by quantitative PCR; type: cell-based; details: FIG. 2
Experimental: (§1) Expression of Insulin and HNF4α. RNA was purified using a RNEASY® chromatographic separation and isolation kits (Qiagen), and converted to cDNA using the gScript™ cDNA SuperMix (Quanta Biosciences). Q-PCR was conducted with cDNA corresponding to 2 μg of RNA using an Opticon Real-Time System (MJ Research) and QPCR SuperMix (BioPioneer). See All mRNA values were normalized to 18S rRNA values and are expressed as fold changes over vehicle-treated control.

HNF4α mRNA = HNF4α mRNA levels by quantitative PCR; type: cell-based; details: FIG. 3
Experimental: as §1

E47MER = test: Counter-screen for estrogenic activity (E47MER luciferase reporter in HeLa cells); type: cell-based, human; details: with 1 μM or without tamoxifen, FIG. 5
Experimental: Counter-Screen for Estrogenic Activity. Estrogenic activity was monitored by co-transfection of a reporter plasmid containing a multimerized E-box 5′ of a minimal promoter fused to the Firefly luciferase gene with wild-type E47 or E47MER (Kiselyuk, et al. (2010) J. Biomol. Screen 15(6):663-70). HeLa cells were transfected using polyethylenimine, 0.2 μg 4RTK-Luc plasmid and either 0.3 μg of human E47, E47MER or pMSCVhph vector in 50 μl of serum-free Dulbecco's modification of Eagle medium per well. Transfections included Renilla luciferase (pRL-TK) plasmid as a control for transfection efficacy. Transfection conditions were as described in the PPRE-Luc reporter assay of Kiselyuk, et al. ((2010) J. Biomol. Screen 15(6):663-70). Sixteen hours after transfection, culture media were changed and maintained for 48 hours with tamoxifen and/or compound or vehicle (DMSO). Cells were then lysed and assayed for luciferase activity using the Promega DUAL-LUCIFERASE® reporter assay kit (Promega Corp., Madison, WI), and luminescence was measured using the Veritas™ Microplate Luminometer (Turner Biosystems, Sunnyvale, CA). Data were normalized to Renilla luciferase (pRL-TK) and expressed as fold-change over vehicle alone.

HepG2 cells = test: Lipid clearance (steatosis assay) in HepG2 cells; type: cell-based; details: HepG2 liver cells, 20 μM
Experimental: (§2) Lipid Clearance in HepG2 and T6PNE Cells (Steatosis Assay). The steatosis assay was carried out as described (Kiselyuk, et al. (2012) Chem. Biol. 19(7):806-818) with the exception of the drug concentration, which was 20 μM for N-trans-caffeoyltyramine with 0.25 mM palmitate in HepG2 cell lines, and 10 μM of either N-trans-caffeoyltyramine, N-trans-caffeoyltyramine, or p-coumaroyltyramine, with 0.25 mM palmitate in T6PNE cell lines. Steatosis was assessed using the Oil Red O Method for Fats kits (Poly Scientific; Warrington, PA), per manufacturer's guidelines. Briefly, frozen tissue slides or fixed cells were incubated in neat propylene glycol for 2 minutes and Oil Red O solution for […] for slides or 1 hour for fixed cells, differentiated in 85% propylene glycol solution for 1 minute, washed twice with distilled water and stained in Hematoxylin of 10 seconds. Slides were mounted with glycerin jelly mounting medium.

T6PNE cells = test: Lipid clearance (steatosis assay) in T6PNE cells; type: cell-based; details: for fat accumulation: T6PNE cells, 0.25 mM palmitate, 10 μM compound
Experimental: T6PNE cells were pretreated for 1 day with 0.06 mM, 0.12 mM or 0.25 mM palmitate at which time 15 μM N-trans-caffeoyltyramine or control (DMSO) was added. Cells were harvested on day 3, 6 and 8 and subjected to staining with Nile Red and […]. Results are expressed as fold change in Nile Red staining: +palmitate/10% FBS medium (no palmitate).
as §2

pH stability assessment = type: physicochemical; details: pH 2, 7.4, 8.5 and 10, 37° C., 0.5 vs 72 hours
Experimental: pH Stability Assessment. Individual stock solutions were prepared in DMSO at concentrations of 10 mg/mL. Four different buffer solution s were prepared to achieve solutions with a pH of 2, 7.4, 8.5 and 10. For each pH assay, 5 μL of stock solution was added to 245 μL of buffered solution to a 2 mL tube, vortexed and incubated in a 37° C. water bath. At each timepoint, 50 μL aliquots were taken, neutralized and analyzed via HPLC analysis using a DAD detector at 280 nm. The fold change of the peak area at 280 nm was analyzed for the initial and final timepoint, 0.5 and 72 hours, respectively.

[1] = Bioavailability determination in male C57BL/6 mice; details: IV 2 mg/kg vs oral or IP 30 mg/kg, route not stated in Table 3

Compound | HNF4α activation / bioactivity (screening result in words) (HNF4α) | insulin gene expression (insulin mRNA) | HNF4α gene expression (HNF4α mRNA) | also measured
O=C(C=CCCc1ccccc1)CCc1ccccc1 [1,7-diphenylhept-4-en-3-one] | complete loss of bioactivity | – | – | –
Cc1ccc([N+](=O)[O-])cc1S(=O)(=O)n1c(C)nc2ccccc21 [BI-6015, reference compound] | – | – | – | effect on N-trans-caffeoyltyramine-mediated increases in insulin expression (HNF4α; BI-6015 0, 2.5, 5 μM with N-trans-caffeoyltyramine 0, 5, 10, 20 μM, FIG. 4): inhibited
COc1cc(/C=C/C(=O)NCC(O)c2ccc(O)cc2)ccc1O (stereo not drawn) [N-trans-feruloyloctopamine] | complete loss of HNF4α activation | inactive | inactive | –
COc1cc(/C=C/C(=O)NCCc2ccc(O)cc2)ccc1O [N-trans-feruloyltyramine] | able to act as HNF4α modulators; also recorded: reduces but does not eradicate bioactivity | upregulated | upregulated | estrogenic activity (E47MER): did not exhibit estrogenic activity; clearing of fats, Oil Red O staining (HepG2 cells): capable of clearing harmful fats from the liver; accumulation of fats (HepG2 cells; 0.25 mM palmitate): inhibited accumulation of fats; lipid accumulation when palmitate was added prior to compound (T6PNE cells; T6PNE cells pretreated 1 day with 0.06-0.25 mM palmitate, 15 μM compound, Nile Red, FIG. 6): can reverse fat accumulation; fat accumulation (T6PNE cells): inhibition of fat accumulation; pH Stability (pH stability assessment): Stable; bioavailability [1]: ~7%
O=C(/C=C/c1ccc(O)cc1)NCC(O)c1ccc(O)cc1 (centres unmarked) [p-coumaroyloctopamine] | – | inactive | inactive | –
O=C(/C=C/c1ccc(O)cc1)NCCc1ccc(O)cc1 [p-coumaroyltyramine] | able to act as HNF4α modulators | upregulated | upregulated | HNF4α activation / bioactivity (screening result in words) (HNF4α; listed as N-trans-coumaroyltyramine): additional reduction but not eradication of bioactivity; fat accumulation (T6PNE cells): inhibition of fat accumulation

Now from value to compound, other results behind:

HNF4α activation / bioactivity (screening result in words) (HNF4α) | Compound | insulin gene expression (insulin mRNA) | HNF4α gene expression (HNF4α mRNA) | also measured
complete loss of bioactivity | O=C(C=Cc1ccccc1)NCCc1ccccc1 [N-2-phenylethylcinnamide] | – | – | –
complete loss of HNF4α activation | O=C(/C=C/c1ccc(O)cc1)NCCc1ccc(O)c(O)c1 [N-coumaroyldopamine] | inactive | inactive | –
complete loss of HNF4α activation | COc1cc(/C=C\C(=O)NCCc2ccc(O)cc2)ccc1O [cis-feruloyltyramine] | inactive | inactive | –
